Reference: patent US20120076859A1, “Targeted Lung Delivery of Citrulline and/or Another Nitric Oxide Precursor and a Method for Treatment of Pulmonary Deficiency of Nitric Oxide in Cystic Fibrosis and Other Pulmonary Diseases” (ACTIVAERO GMBH, priority 2010, published 2012)

Legend:
exhaled nitric oxide = conditions: inhaled L-arginine; healthy and asthmatic subjects; cited from earlier work
[1] = inhalation of arginine solution; cystic fibrosis patients; cited from earlier work
[2] = single oral dose; cystic fibrosis and healthy subjects; cited from earlier work
[3] = test system: exhaled nitric oxide / pulmonary function; conditions: cystic fibrosis patients, cited from earlier work
[4] = test system: isolated lungs of chronically hypoxic newborn pigs; conditions: perfusion of isolated lungs; cited from earlier work
[5] = Storage stability of ready to use formulation in LDPE vials; type: physicochemical; conditions: room temperature; LDPE vials covered with aluminum overwrap
Procedure: In alternative, the liquid form of the highly concentrated citrulline or another nitric oxide precursor may also be conveniently supplied as a ready to use formulation stored and supplied in 1 mL “Blow-fill-Seal” vial, made of plastic polyethylene material, such as low density polyethylene (LDPE). The selected material for such ready to use formulation prevents absorption of the active component onto the plastic walls of the vial, which is a common occurrence with other plastic materials. The 1 mL fill volume of the vial provides an exact amount of active component that is safe and efficacious for the patient convenience provided, of course, that the therapeutically effective amount of the active component can be supplied in 1 mL dilution. In the above described type of vials covered with an aluminum overwrap, citrulline or nitric oxide precursors for inhalation are stable for at least 9 months and 12 months, respectively, at room temperature. There is no loss of strength under these conditions. At accelerated conditions where the vials are exposed to a temperature of 40° C. and 75% relative humidity, all formulations for extended shelf-life will be shown to retain their full activity for at least 6 months and preferably or one year.

| SMILES | exhaled nitric oxide (exhaled nitric oxide) | time of maximum effect on exhaled nitric oxide (exhaled nitric oxide) | adverse effects of inhalation therapy [1] | plasma L-arginine concentration [2] | plasma amino acid concentration of L-arginine ([3]; after single inhalation) | FEV1 ([3]; single inhalation) | exhaled nitric oxide concentrations ([3]; single inhalation) | nitric oxide production [4] | stability (shelf-life) [5] |
| --- | --- | --- | --- | --- | --- | --- | --- | --- | --- |
| N=C(N)NCCC[C@H](N)C(=O)O [L-arginine] | increased exhaled nitric oxide in a dose-dependent fashion | 60 min | cough, airway inflammation and severe deterioration of the patients general conditions | significant increase of plasma L-arginine concentration | did not change significantly over time | sustained improvement of FEV1 | significantly increasing exhaled nitric oxide concentrations | increase of nitric oxide production |  |
| NC(=O)NCCC[C@H](N)C(=O)O [citrulline, L-(+)-2-amino-5-ureidovaleric acid] |  |  |  |  |  |  |  |  | at least 9 months |
